Test results reported in patent publication US20160185797A1, “ALKYNYL ALCOHOLS AND METHODS OF USE” (Genentech, Inc., priority 2013, published 2016).
Where two headings read alike, the source gives them in different places.

What was measured:
[1] = system: REL-A (p65) nuclear translocation in HeLa cells; assay: REL-A (p65) nuclear translocation assay in HeLa cells, TNF-α stimulated (classical NF-kB signaling), high content imaging; assay type: cell-based; conditions: compound 4.5 h, then 10 ng/mL TNF-α for 30 minutes, read-out: REL-A HeLa Transloc Assay (IC50)
How it was run: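 HeLa cells in medium with 10% fetal bovine serum were exposed to compounds (0.2% DMSO final) for 4.5 hours, then stimulated with 10 ng/mL TNF-α for 30 minutes. After fixation in 4% paraformaldehyde and permeabilization with 0.1% Triton X-100, cells were stained with 400 ng/mL anti-REL-A (p65) antibody, an Alexa488 secondary and DRAQ5. Opera imaging quantified the nuclear-to-cytoplasmic signal ratio to give IC50.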

[2] = biological target: T1, nuclear factor-kappa B (NF-kB)-inducing kinase (NIK) (Homo sapiens, UniProt Q99558); assay: NIK enzyme inhibition assay (Transcreener ADP fluorescence polarization, NIK ADP-FP); assay type: biochemical
T1 construct: made in house; host or cells: baculovirus-infected insect cells
T1 sequence (Q99558 whole entry): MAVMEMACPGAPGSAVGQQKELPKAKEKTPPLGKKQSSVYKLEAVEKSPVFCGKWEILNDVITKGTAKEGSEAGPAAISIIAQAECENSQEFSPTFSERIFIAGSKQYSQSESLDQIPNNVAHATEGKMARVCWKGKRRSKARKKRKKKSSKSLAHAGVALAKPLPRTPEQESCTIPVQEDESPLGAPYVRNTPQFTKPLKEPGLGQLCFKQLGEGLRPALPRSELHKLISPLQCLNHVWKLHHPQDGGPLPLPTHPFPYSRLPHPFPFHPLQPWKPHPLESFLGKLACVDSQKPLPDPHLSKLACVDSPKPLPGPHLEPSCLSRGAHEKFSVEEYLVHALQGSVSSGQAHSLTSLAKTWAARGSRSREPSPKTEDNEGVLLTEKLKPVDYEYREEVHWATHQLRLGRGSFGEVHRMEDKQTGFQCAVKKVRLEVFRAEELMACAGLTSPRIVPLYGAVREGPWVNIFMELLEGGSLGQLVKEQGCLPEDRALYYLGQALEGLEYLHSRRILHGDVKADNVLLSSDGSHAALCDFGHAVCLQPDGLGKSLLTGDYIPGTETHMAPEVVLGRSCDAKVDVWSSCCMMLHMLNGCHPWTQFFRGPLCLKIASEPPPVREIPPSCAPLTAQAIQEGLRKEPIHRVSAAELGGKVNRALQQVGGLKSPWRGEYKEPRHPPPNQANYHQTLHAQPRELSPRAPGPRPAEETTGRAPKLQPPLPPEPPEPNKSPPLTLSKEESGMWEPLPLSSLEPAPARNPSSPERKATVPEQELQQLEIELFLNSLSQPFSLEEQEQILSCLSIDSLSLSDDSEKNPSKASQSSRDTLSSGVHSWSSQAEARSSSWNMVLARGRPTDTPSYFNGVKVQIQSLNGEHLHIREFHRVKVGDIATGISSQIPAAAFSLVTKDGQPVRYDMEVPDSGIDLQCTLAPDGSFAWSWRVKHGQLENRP
Protocol: NIK Enzyme Inhibition Assay:
The ability of the nuclear factor-kappa B (NF-kB)-inducing kinase (NIK) to catalyze the hydrolysis of adenosine-5′-triphosphate (ATP) was monitored using the Transcreener ADP (adenosine-5′-diphosphate) assay (BellBrook Labs). […] Reactions were quenched by the addition of 20 mM 2,2′,2″,2′″-(ethane-1,2-diyldinitrilo)tetraacetic acid and 0.01% Brij 35. The tracer bound to the antibody was displaced by the ADP generated during the NIK reaction, which causes a decrease in fluorescence polarization that was measured by laser excitation at 633 nm with a Fluorescence Correlation Spectroscopy Plus reader (Evotec AG). Equilibrium dissociation constant (Ki) values for NIK inhibitors are calculated from plots of activity vs. inhibitor concentration using Morrison's quadratic equation that accounts for the potential of tight binding, and by also applying the conversion factor that accounted for competitive inhibition and the concentration of substrate used in the assay relative to its Michaelis constant (Km).

[3] = system: p52 (NF-kB2) nuclear translocation in HeLa cells; assay: p52 (NF-kB2) nuclear translocation assay in HeLa cells, anti-lymphotoxin beta receptor antibody stimulated (non-classical NF-kB signaling), high content imaging; assay type: cell-based; conditions: 100 ng/mL anti-lymphotoxin beta receptor antibody for 5 hours, read-out: p52 HeLa Transloc Assay (IC50)
How it was run: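 HeLa cells in 10% FBS medium were treated with compound (0.2% DMSO final) and stimulated with 100 ng/mL anti-lymphotoxin beta receptor antibody for 5 h. Fixed cells were immunostained for p52 and imaged with DRAQ5 nuclear stain. Translocation is the nuclear to cytoplasmic intensity ratio, […].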

Compound	IC50 ([1]; Homo sapiens, HeLa) [nM]	Ki [2] [nM]	IC50 ([3]; Homo sapiens) [nM]	IC50 [1] [nM]	Ki ([2]; purified NIK 0.5 nM, 10 μM ATP, pH 7.2, Ki from Morrison's quadratic equation) [nM]	IC50 [3] [nM]
COc1cc(-c2cccc(C#C[C@]3(O)CCN(C)C3=O)c2)nc(C(N)=O)c1C [Example 169, 6-[3-[2-[(3R)-3-hydroxy-1-methyl-2-oxo-pyrrolidin-3-yl]ethynyl]phenyl]-4-methoxy-3-methyl-pyridine-2-carboxamide]	> 2000	0.55	196	–	–	–
Cc1cnn(-c2cc(C(N)=O)nc(-c3cccc(C#C[C@]4(O)CCN(C)C4=O)c3)n2)c1 [Example 104, 2-[3-[2-[(3R)-3-hydroxy-1-methyl-2-oxo-pyrrolidin-3-yl]ethynyl]phenyl]-6-(4-methylpyrazol-1-yl) pyrimidine-4-carboxamide]	–	–	–	≥ 20000	0.4	69.2
CN1CC[C@@](O)(C#Cc2cccc(-c3nc(C(N)=O)cc(-c4cc(F)cc(F)c4)n3)c2)C1=O [Example 97, 6-(3,5-difluorophenyl)-2-[3-[2-[(3R)-3-hydroxy-1-methyl-2-oxo-pyrrolidin-3-yl]ethynyl]phenyl]pyrimidine-4-carboxamide]	≥ 20000	0.37	57.5	–	–	–
Cc1nnc([C@](C)(O)C#Cc2cccc(-c3nc(C(N)=O)cc(-n4nccc4C)n3)c2)o1 [Example 150]	> 2000	0.99	628	–	–	–
COCCNc1ncc(-c2cc(C#C[C@]3(O)CCN(C)C3=O)ccc2F)nc1C(N)=O [Example 134, 6-[2-fluoro-5-[2-[(3R)-3-hydroxy-1-methyl-2-oxo-pyrrolidin-3-yl]ethynyl]phenyl]-3-(2-methoxyethylamino) pyrazine-2-carboxamide]	≥ 2000	0.09	45.4	–	–	–
CN1CC[C@@](O)(C#Cc2cccc(-c3nc(C(N)=O)cc(-c4ccnn4C)n3)c2)C1=O [Example 33, 2-[3-[2-[(3R)-3-hydroxy-1-methyl-2-oxo-pyrrolidin-3-yl]ethynyl]phenyl]-6-(2-methylpyrazol-3-yl) pyrimidine-4-carboxamide]	> 28000	< 0.05	36.3	–	–	–
COC[C@H](C)Nc1ccc(-c2cc(C#C[C@]3(O)CCN(C)C3=O)ccc2F)nc1C(N)=O [Example 149, 6-[2-fluoro-5-[2-[(3R)-3-hydroxy-1-methyl-2-oxo-pyrrolidin-3-yl]ethynyl]phenyl]-3-[[(1S)-2-methoxy-1-methyl-ethyl]amino]pyridine-2-carboxamide]	≥ 2000	0.88	51.1	–	–	–
Cc1ccnn1-c1cc(C(N)=O)nc(-c2cccc(C#C[C@]3(O)CCN(C)C3=O)c2)c1 [Example 125, 6-[3-[2-[(3R)-3-hydroxy-1-methyl-2-oxo-pyrrolidin-3-yl]ethynyl]phenyl]-4-(5-methylpyrazol-1-yl) pyridine-2-carboxamide]	≥ 2000	1.29	84.2	–	–	–
CN1CC[C@@](O)(C#Cc2cc3c(c(-c4cccc(C(N)=O)n4)c2)OCC3)C1=O [Example 77, 6-[5-[2-[(3R)-3-hydroxy-1-methyl-2-oxo-pyrrolidin-3-yl]ethynyl]-2,3-dihydrobenzofuran-7-yl] pyridine-2-carboxamide]	≥ 20000	0.99	247	–	–	–
CN1CC[C@@](O)(C#Cc2cccc(-c3cc(-n4cncn4)cc(C(N)=O)n3)c2)C1=O [Example 51, 6-[3-[2-[(3R)-3-hydroxy-1-methyl-2-oxo-pyrrolidin-3-yl]ethynyl]phenyl]-4-(1,2,4-triazol-1-yl)pyridine-2-carboxamide]	≥ 20000	0.23	129	–	–	–
Cc1cc(C#C[C@]2(O)CCN(C)C2=O)cc(-c2nccc(C(N)=O)n2)c1 [Example 94, 2-[3-[2-[(3R)-3-hydroxy-1-methyl-2-oxo-pyrrolidin-3-yl]ethynyl]-5-methyl-phenyl]pyrimidine-4-carboxamide]	≥ 20000	1.41	175	–	–	–
